We go through three compounds from PMC6027146, “Synthesis and Structure-Activity Relationships of (−)-cis-N-Normetazocine-Based LP1 Derivatives” (Pharmaceuticals, 2018).

Like-named read-outs stand apart in the source and are kept apart here.

Series [1] addresses T1, recombinant human MOR (Homo sapiens, UniProt P35372).
T1 construct: expressed in transfected cells; gift of Dr. Larry Toll (SRI International); infected with a retrovirus for Gαqi5
Nature of the series: Calcium mobilization assay, CHO-MOR cells expressing Gαqi5. It counts as cell-based. The note with it: for MOR pEC50 (CL95%): agonist mode, crc incomplete = incomplete concentration response curve at 10 μM.

The target in series [2] is T2, human-KOR (Homo sapiens, UniProt P41145). Put plainly: Calcium mobilization assay, CHO-KOR cells expressing Gαqi5. It counts as cell-based. The note with it: for KOR pEC50 (CL95%): agonist mode, crc incomplete = incomplete concentration response curve at 10 μM; for KOR pEC50 (CL95%) / KOR pKB (CL95%): Inactive = inactive at 10 μM; for KOR pKB (CL95%): antagonist mode, dynorphin A as agonist. Also noted: expressed in transfected cells; gift of Dr. Larry Toll (SRI International); infected with a retrovirus for Gαqi5. As to the method: (§1) The pharmacological characterization of LP1 derivatives 2 and 10–16 was performed by calcium mobilization assay (Table 2). This procedure was preliminarily validated through a series of experiments where the effects of DPDPE, dermorphin, and dynorphin A were assessed in CHO cells expressing the human recombinant opioid receptors and Gαqi5 or GαqG66Di5 chimeric proteins.
(§2) Chinese hamster ovary (CHO) cells expressing the recombinant human MOR and KOR (CHO^MOR and CHO^KOR) were kindly provided by Dr. Larry Toll (SRI International, Menlo Park, CA, USA), and CHO cells expressing the recombinant human DOR (CHO^DOR) were supplied by Dr. Eva Varga (Department of Medical Pharmacology, The University of Arizona, Tucson, AZ, USA). CHO cells lines permanently coexpressing the opioid receptors and the C-terminally modified Gαqi5 were prepared by infecting the CHO lines described above with a recombinant retrovirus expressing the chimeric α subunit and the hygromycin resistance gene. Similarly, CHO cells lines permanently coexpressing DOR and the C-terminally modified GαqG66Di5 were prepared by infecting the CHO lines described above with a recombinant retrovirus expressing the chimeric α subunit and the hygromycin resistance gene. Polyclonal cell lines were generated using the pantropic retroviral expression system form BD-Clontech, as described previously. Stable lines were selected under hygromycin B (100 μg/mL) and geneticin (600 μg/mL) for 2–3 weeks after the infection.
(§3) CHO cells, expressing human opioid receptors and the Gαqi5 protein, and CHODOR, expressing the GαqG66Di5 protein, were maintained in culture medium consisting of Dulbecco minimum essential medium (DMEM) and Ham F-12 (1:1) (50/50) supplemented with 10% fetal calf serum (FCS), L-glutamine (2 mM), geneticin (200 μg/mL; G418), hygromycin B (100 μg/mL) at 37 °C in 5% CO2 humidified air. When confluence was reached (3–4 days), cells were subcultured as required using trypsin/EDTA, and used for experimentation. The different cell lines were seeded at a density of […] into black 96-well, clear-bottomed plates. After 24 h incubation, the cells were loaded with medium supplemented with 2.5 mM probenecid, 3 μM of the calcium sensitive fluorescent dye Fluo-4 AM, and 0.01% pluronic acid, for 30 min at 37 °C. Afterwards, the loading solution was aspirated and 100 μL/well of assay buffer—HBSS supplemented with 20 mM HEPES, 2.5 mM probenecid and 500 μM Brilliant Black (Aldrich, St. Louis, MO, USA)—was added. Serial dilutions of ligands for experimental use were made in HBSS/HEPES (20 mM) buffer (containing 0.005% BSA fraction V). After placing both plates (cell culture and compound plate) into the FlexStation II (Molecular Device, Union City, San Jose, CA 94587, USA), fluorescence changes were measured at room temperature. Online additions were carried out in a volume of 50 μL/well. Antagonists were incubated 15 min before the addition of the agonist. Maximum change in fluorescence, expressed in percent of baseline fluorescence, was used to determine agonist response.
(§4) Analysis of the binding data was performed using the Origin 7.5 software (OriginLab Corporation, Northampton, MA, USA). In calcium mobilization experiments, data were analyzed by non-linear curve fitting equation, using GraphPad 5.0 software. […] Ligand efficacy was expressed as intrinsic activity (α), calculated as the ratio between the Emax of the ligand and that of the respective standards. Calcium mobilization data were expressed as FIU (fluorescence intensity units) in percent, over the baseline. Agonist potencies are given as pEC50 (the negative logarithm to base 10 of the molar concentration of an agonist that produces 50% of the maximal possible effect, Emax). Concentration response curves to agonists were fitted with the following equation: Effect = baseline + (Emax − baseline)/(1+10^(LogEC50 − X) ∗ HillSlope) where X is the agonist concentration. […]

In series [3] the target is T3, rat-DOR (Rattus norvegicus, UniProt P33533).
T3 construct: expressed in transfected cells
Nature of the series: Radioligand competition binding, [3H]-DPN, HEK293 membranes, DOR. As to the method: (§5) All synthesized compounds were tested in vitro by radioligand competition binding using [^3H]-diprenorphine ([^3H]-DPN) to measure the affinity for opioid receptor subtypes in membranes from HEK293 cells stably expressing either MOR, DOR, or KOR, as previously described.
(§6) Confluent monolayers of HEK293 (human embryonic kidney 293) cells stably expressing rat-MOR, rat-DOR, or human-KOR were harvested, collected by centrifugation at 1500 rpm for 5 min, and washed once with phosphate-buffered saline (PBS) at pH 7.5. Membranes from cell pellets were carried out as described by Georgoussi and Zioudrou (1993) and Papakonstantinou et al. (2015). Briefly, cell pellets were resuspended in ice-cold membrane buffer (10 mM Tris-HCl, pH 7.5 and 0.1 mM EDTA), homogenized, and centrifuged at 2,000 g for 3 min at 4 °C. Supernatants were further centrifuged at 45,000 rpm for 30 min at 4 °C. The membrane pellet was resuspended in ice-cold membrane buffer at a protein concentration of approximately 1 mg/mL and stored in aliquots at −70 °C. Protein concentration was determined according to Bradford assay.
(§7) In the experiments designed to define compound affinity and selectivity for MOR, DOR, and KOR, membranes expressing each of these opioid receptors ([…]) were incubated at 30 °C for 45 min in buffer containing 50 mM Tris-HCl, pH 7.5, 100 mM NaCl, and 10 mM MgCl2 as described by Georgoussi et al. […] The ability of compounds 10–16 to displace [^3H]-DPN (3.75 nM) binding to the opioid receptors was assessed as described by Morou And Georgoussi (2005). Non-specific binding was measured in the presence of […] Naloxone. The reaction was stopped by rapid filtration and three washes in ice-cold 50 mM Tris-HCl, pH 7.4, through GF/C filters (Whatman, Maidstone, UK) using an automated cell harvester (Brandel Inc., Gaithersburg, MD, USA). The radioactivity was measured by liquid scintillation counting (Liquid Scintillation Analyzer, Packard).
(§8) Analysis of the binding data was performed using the Origin 7.5 software (OriginLab Corporation, Northampton, MA, USA). In calcium mobilization experiments, data were analyzed by non-linear curve fitting equation, using GraphPad 5.0 software. […] Ligand efficacy was expressed as intrinsic activity (α), calculated as the ratio between the Emax of the ligand and that of the respective standards. Calcium mobilization data were expressed as FIU (fluorescence intensity units) in percent, over the baseline. Agonist potencies are given as pEC50 (the negative logarithm to base 10 of the molar concentration of an agonist that produces 50% of the maximal possible effect, Emax). Concentration response curves to agonists were fitted with the following equation: Effect = baseline + (Emax − baseline)/(1+10^(LogEC50 − X) ∗ HillSlope) where X is the agonist concentration.

Series [4] deals with T4, recombinant human DOR (Homo sapiens, UniProt P41143).
T4 construct: expressed in transfected cells; supplied by Dr. Eva Varga (University of Arizona); infected with a retrovirus for GαqG66Di5
Nature of the series: Calcium mobilization assay, CHO-DOR cells expressing GαqG66Di5. The note with it: for DOR pEC50 (CL95%): agonist mode, crc incomplete = incomplete concentration response curve at 10 μM; for DOR pEC50 (CL95%) / DOR pKB (CL95%): Inactive = inactive at 10 μM; for DOR pKB (CL95%): antagonist mode, DPDPE as agonist. Format: cell-based. As to the method: as §1, §2, §3, §4
A general note: Calcium assays in cells follow changes in intracellular calcium, usually with a dye or a luminescent sensor.

The target in series [5] is T2, human-KOR. Nature of the series: Radioligand competition binding, [3H]-DPN, HEK293 membranes, KOR. Also noted: expressed in transfected cells. The protocol: as §5, §6, §7, §8
Series [6] has as its target T5, rat-MOR (Rattus norvegicus, UniProt P33535).
T5 construct: expressed in transfected cells
Nature of the series: Radioligand competition binding, [3H]-DPN, HEK293 membranes, MOR. The protocol: as §5, §6, §7, §8
(In a radioligand displacement assay an active substance lowers the binding of a labelled ligand.)

Series [7] concerns the target T5, rat-MOR. On the set-up: method as in PMID 27234885. The note with it: read-out: Ki (μM) ± SEM MOR; [3H]-DPN displacement; cited from earlier work.
Series [8] addresses T3, rat-DOR. On the set-up: method as in PMID 27234885. The note with it: read-out: Ki (μM) ± SEM DOR; [3H]-DPN displacement; cited from earlier work.
In series [9] the target is T2, human-KOR. On the set-up: expressed in transfected cells; method as in PMID 27234885. The note with it: read-out: Ki (μM) ± SEM KOR; [3H]-DPN displacement; cited from earlier work.

For orientation: melting point means the temperature of the solid-liquid transition. For orientation: Ki means the dissociation constant of the complex between target and ligand, obtained from inhibition or displacement. The compound `COc1ccc(NC(=O)CCN2CC[C@@]3(C)c4cc(O)ccc4C[C@@H]2[C@@H]3C)cc1` [Compound 13, 3-[(2R,6R,11R)-8-Hydroxy-6,11-dimethyl-1,4,5,6-tetrahydro-2,6-methano-3-benzazocin-3(2H)-yl]-N-(4-methoxyphenyl)propanamide] showed a melting point of 172.9 to 173.5 °C. Also, the Kb in [1] was 501 nM. The “MOR pEC50 (CL95%)” value in series [1] (Inactive = inactive at 10 μM) is listed as “Inactive”. In series [2], the “KOR pEC50 (CL95%)” value is reported as “Inactive” and the “KOR pKB (CL95%)” value is “Inactive”. In series [3], this compound registered an inhibition constant Ki of 1.1 ± 0.11 µM. In series [4], the “DOR pEC50 (CL95%)” value is given as “Inactive” and the “DOR pKB (CL95%)” value was “Inactive”. In series [5], the Ki stood at 4 ± 0.18 µM. The inhibition constant (Ki) in series [6] worked out at 0.18 ± 0.011 µM.
For the compound `C[C@H]1[C@H]2Cc3ccc(O)cc3[C@]1(C)CCN2CCC(=O)N1CCc2ccccc21` [Compound 14, 1-(2,3-Dihydro-1H-indol-1-yl)-3-[(2R,6R,11R)-8-hydroxy-6,11-dimethyl-1,4,5,6-tetrahydro-2,6-methano-3-benzazocin-3(2H)-yl]propan-1-one], the melting point is 169 °C (dec.). For the same compound, the “MOR pEC50 (CL95%)” value in series [1] (Inactive = inactive at 10 μM) is recorded as “Inactive”. Moreover, in series [1] (antagonist mode, dermorphin as agonist, Inactive = inactive at 10 μM, read-out: MOR pKB (CL95%) (converted)), the Kb is 1150 nM. Besides, in [2], the “KOR pEC50 (CL95%)” value was “Inactive” and the “KOR pKB (CL95%)” value is listed as “Inactive”. In [3] ([3H]-DPN displacement, means ± SEM of three experiments in duplicate, read-out: Ki (μM) ± SEM DOR), the Ki was found to be 1.4 ± 0.12 µM. Moreover, in series [4], the “DOR pEC50 (CL95%)” value is given as “Inactive” and the “DOR pKB (CL95%)” value was “Inactive”. Moreover, the Ki in series [5] ([3H]-DPN displacement, means ± SEM of three experiments in duplicate, read-out: Ki (μM) ± SEM KOR) stood at 1.6 ± 0.12 µM. Moreover, in series [6] ([3H]-DPN displacement, means ± SEM of three experiments in duplicate, read-out: Ki (μM) ± SEM MOR), the Ki is 0.4 ± 0.03 µM.
Regarding `CC1C2Cc3ccc(O)cc3C1(C)CCN2CCC(=O)Nc1cccc2ccccc12` (centres unmarked) [Compound 2], the Kb was 12.6 nM in series [1], 1380 nM in [2] and 166 nM in [4]. For the same compound, in [1] (Inactive = inactive at 10 μM), the “MOR pEC50 (CL95%)” value is reported as “Inactive ^e”. Besides, the Ki in series [7] is 0.038 ± 0.004 µM; in [8] it was 0.21 ± 0.03 µM; in [9] it was 0.8 ± 0.016 µM. Moreover, in series [2], the “KOR pEC50 (CL95%)” value was “Inactive”. In series [4], the “DOR pEC50 (CL95%)” value is “Inactive”.
